The values that follow are results of earlier work, collected in patent US10858575B2, “Temperature-stable corrosion inhibitor compositions and methods of use” (ChampionX USA Inc., priority 2017, dated 2020).

The term LogP denotes a log measure of how a compound divides between an organic and an aqueous phase.

For the first data set the following is noted: at 20° C.
With `CCCCOCCOCCO` [diethylene glycol butyl ether], the vapor pressure is recorded as 30 mm Hg.
Take `CCOCCOCCO` [diethylene glycol ethyl ether]: the vapor pressure was 0.12 mm Hg.
As to `CCCCCCOCCOCCO` [diethylene glycol hexyl ether], the vapor pressure is 0.001 mm Hg.
As for `COCCOCCO` [diethylene glycol methyl ether], the vapor pressure is reported as 0.2 mm Hg.
With `COC(C)COC(C)CO` (centres unmarked) [dipropylene glycol methyl ether], the vapor pressure is given as 0.28 mm Hg.
On to `CCCOC(C)COC(C)CO` (centres unmarked) [dipropylene glycol propyl ether], for which the vapor pressure is 0.08 mm Hg.
On to `CCCCOCCO` [ethylene glycol butyl ether], for which the vapor pressure is on record as 10 mm Hg.
Consider `CCOCCO` [ethylene glycol ethyl ether], for which the vapor pressure is 3.8 mm Hg.
For the compound `CCCCCCOCCO` [ethylene glycol hexyl ether], the vapor pressure is recorded as 0.05 mm Hg.
With `CCCCOCC(C)O` (centres unmarked) [propylene glycol butyl ether], the vapor pressure is listed as 0.85 mm Hg.
For the compound `COCC(C)O` (centres unmarked) [propylene glycol methyl ether], the vapor pressure was 8.7 mm Hg.
On to `CCCOCC(C)O` (centres unmarked) [propylene glycol propyl ether], for which the vapor pressure is 4.5 mm Hg.
For `CCCCOC(C)COC(C)COC(C)CO` (centres unmarked) [tripropylene glycol butyl ether], the vapor pressure was 0.002 mm Hg.

For another data set the following is noted: octanol/water.
`O=C1CCCO1`: the LogP is listed as −0.57.
